Key:
[1] = test system: MCF-7 breast carcinoma cells; experiment: MTT cytotoxicity assay, MCF-7; type: cell-based, human; conditions: mean ± SD of three experiments
Protocol: (§1) MCF-7 Adenocarcinoma of the breast in humans and A549 […] lines of cells (purchased from Labco's Sigma-Aldrich) were employed to evaluate the newly synthesized compounds' anti-cancer potential. […] The American type culture collection provided the cell lines and were cultured in 10% FBS added to DMEM (Invitrogen/Life Technologies) (Hyclone), a 10 μg ml^−1 of insulin (Sigma), and a 1% penicillin-streptomycin. The suppliers of all other chemicals and reagents were either Invitrogen or Sigma.
(§2) For the MTT assay, cells were plated at a density of 1.2 to 1.8 × 10 000 cells per well in a total volume of 200 μl, comprising 100 μl of a full growing medium and 100 μl of the substance that was evaluated in each well. The cells were then incubated for 24 hours.
(§3) Aspirate the cells gently using a pipette after adding 6.0 to 8.0 ml of full growth media. […] Transfer the proper aliquots to new culture vessels, discard the supernatant, and resuspend the cell pellet in fresh growth media. For a full day, incubate the cultures at 37 °C. […] To perform the MTT assay, examine the plates using an inverted microscope.
(§4) Additionally, incorporate a blank control containing complete medium without any cells. Remove the cultures from the incubator and transfer them to a laminar flow hood or sterile workspace. […] Add the reconstituted MTT in an amount equal to 10% of the total volume of the culture medium. Return the cultures to the incubator for 2 to 4 hours, depending on the cell type and maximum cell density; typically, 2 hours is adequate, though longer incubation may be required for low-density or less metabolically active cells. It is important to maintain consistent incubation times for accurate comparisons.
(§5) Gentle mixing with a gyratory shaker will facilitate the dissolution of the crystals. In denser cultures, pipetting up and down may be necessary to ensure complete dissolution of the MTT formazan crystals. Measure the absorbance spectrophotometrically at 570 nm and assess the background absorbance of the multi-well plates at 690 nm, which should be subtracted from the 570 nm measurement. The tests in multi-well plates can be read using an appropriate plate reader, or the contents can be transferred to cuvettes for measurement.

[2] = test system: A549 lung cancer cells; experiment: MTT cytotoxicity assay, A549; type: cell-based, human; conditions: mean ± SD of three experiments
Protocol: as §1, §2, §3, §4, §5

[3] = target: T1, EGFR^WT (Homo sapiens, UniProt P00533); experiment: EGFR Kinase Assay Kit (Catalog # 40321), Kinase-Glo Max luminescence; type: biochemical; conditions: five concentrations, read-out: EGFR kinase inhibitory activity IC50
T1 construct: purchased 40321
T1 sequence (P00533 668-1210 limits assumed): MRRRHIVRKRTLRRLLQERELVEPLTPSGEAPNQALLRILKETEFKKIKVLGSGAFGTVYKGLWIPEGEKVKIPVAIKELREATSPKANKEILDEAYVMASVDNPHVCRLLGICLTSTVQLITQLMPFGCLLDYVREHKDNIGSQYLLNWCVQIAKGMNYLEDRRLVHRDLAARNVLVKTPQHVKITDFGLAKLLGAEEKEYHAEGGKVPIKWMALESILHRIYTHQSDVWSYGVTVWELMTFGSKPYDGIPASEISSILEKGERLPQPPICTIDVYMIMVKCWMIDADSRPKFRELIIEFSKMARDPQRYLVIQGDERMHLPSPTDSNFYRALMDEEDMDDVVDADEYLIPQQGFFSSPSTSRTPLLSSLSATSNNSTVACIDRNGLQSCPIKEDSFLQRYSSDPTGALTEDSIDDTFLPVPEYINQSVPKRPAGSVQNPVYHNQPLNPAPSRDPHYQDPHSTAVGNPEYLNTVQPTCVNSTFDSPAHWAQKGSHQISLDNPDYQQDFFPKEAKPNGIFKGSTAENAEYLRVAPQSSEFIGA

| IC50 [3] | SMILES | IC50 ([1]; Homo sapiens, MCF7, MTT test) | IC50 ([2]; Homo sapiens, A549, MTT test) | IC50 ([2]; MTT test) | IC50 ([1]; MTT test) |
| --- | --- | --- | --- | --- | --- |
|  | CC12CCC(C3(C1)NC(=S)NC(=N)C3C#N)C2(C)C (stereo not shown) [Compound 6, 6′-Imino-4,7,7-trimethyl-2′-thioxotetrahydro-1′H-spiro[bicyclo[2.2.1]heptane-2,4′-pyrimidine]-5′-carbonitrile] | 19.9 ± 0.73 µM | 28.5 ± 0.99 µM |  |  |
|  | CC12CCC(C3(C1)NC(=S)NC(=O)C3C#N)C2(C)C (stereo not shown) [Compound 7, 4,7,7-Trimethyl-6′-oxo-2′-thioxotetrahydro-1′H-spiro[bicyclo[2.2.1]heptane-2,4′-pyrimidine]-5′-carbonitrile] | 10.1 ± 0.39 µM | 22.2 ± 0.77 µM |  |  |
|  | CC(=O)C1C(=O)NC(=S)NC12CC1(C)CCC2C1(C)C (stereo not shown) [Compound 8, 5′-Acetyl-4,7,7-trimethyl-2′-thioxodihydro-1′H-spiro[bicyclo[2.2.1]heptane-2,4′-pyrimidin]-6′(5′H)-one] | 6.15 ± 0.23 µM | 3.34 ± 0.12 µM |  |  |
|  | CC12CCC(C3(C1)NC(=O)NC(=N)C3C#N)C2(C)C (stereo not shown) [Compound 10, 6′-Imino-4,7-trimethyl-2′-oxotetrahydro-1′H-spiro[bicyclo[2.2.1]heptane-2,4′-pyrimidine]-5′-carbonitrile] | 12.7 ± 0.47 µM | 23.3 ± 0.81 µM |  |  |
|  | CC12CCC(C3(C1)NC(=O)NC(=O)C3C#N)C2(C)C (stereo not shown) [Compound 11, 4,7,7-Trimethyl-2′,6′-dioxotetrahydro-1′H-spiro[bicyclo[2.2.1]heptane-2,4′-pyrimidine]-5′-carbonitrile] | 35 ± 1.32 µM | 56.6 ± 2.01 µM |  |  |
|  | CC(=O)C1C(=O)NC(=O)NC12CC1(C)CCC2C1(C)C (stereo not shown) [Compound 12, 5′-Acetyl-4,7,7-trimethyl-1′H-spiro[bicyclo[2.2.1]heptane-2,4′-pyrimidine]-2′,6′(3′H,5′H)-dione] | 3.2 ± 0.12 µM | 14.4 ± 0.5 µM |  |  |
|  | Cc1ccc(-c2cs/c(=N/N=C3/CC4CCC3(C)C4(C)C)[nH]2)cc1 (stereo not shown) [Compound 16a] | 2.16 ± 0.08 µM | 4.13 ± 0.14 µM |  |  |
|  | CC12CCC(C/C1=N/N=c1\[nH]c(-c3ccc(Cl)cc3)cs1)C2(C)C (stereo not shown) [Compound 16b] | 8.29 ± 0.3 µM | 15.2 ± 0.53 µM |  |  |
|  | CC12CCC(C/C1=N/N=c1\[nH]c(-c3ccc(Br)cc3)cs1)C2(C)C (stereo not shown) [Compound 16c] | 2.84 ± 0.1 µM | 1.29 ± 0.04 µM |  |  |
| 0.198 µM | CC12CCC(C/C1=N/N=C/c1cn(-c3ccc(S(N)(=O)=O)cc3)nc1-c1ccc(Br)cc1)C2(C)C (stereo not shown) [Compound 20] | 0.78 ± 0.03 µM | 1.69 ± 0.06 µM |  |  |
|  | Cc1nc(Nc2ncc(C(=O)Nc3c(C)cccc3Cl)s2)cc(N2CCN(CCO)CC2)n1 [Dasatinib, reference compound] | 7.99 ± 0.29 µM | 11.8 µM | 11.8 ± 0.41 µM |  |
|  | COc1cccc2c1C(=O)c1c(O)c3c(c(O)c1C2=O)C[C@@](O)(C(=O)CO)C[C@@H]3O[C@H]1C[C@H](N)[C@H](O)[C@H](C)O1 [Doxorubicin, reference compound] | 3.1 µM | 2.43 ± 0.08 µM |  | 3.12 ± 0.11 µM |
|  | C#Cc1cccc(Nc2ncnc3cc(OCCOC)c(OCCOC)cc23)c1 [Erlotinib, reference compound] | 13.9 ± 1.3 µM |  |  |  |

Source: paper PMC12023740, “Semi-synthesis and biological activities of heterocyclic compounds containing camphor” (RSC Advances, 2025)
